Experimental data as given in patent US20220226338A1, “Methods of Treating Cancer Using CHK1 Inhibitors” (Sierra Oncology, Inc., priority 2019, published 2022).

Assay: Excretion in urine and feces, mice
Type: in vivo
Conditions: 24-hour collection
Protocol: The excretion of SRA737 has been studied in mice and rats administered SRA737 at either 5 mg/kg IV or 10 mg/kg orally. Urine and feces were collected for a 24-hour period after dosing. In mice, renal excretion of intact SRA737 was consistently low (less than 10% of dose) after both oral and IV administration. Following IV administration of SRA737, less than 8% of the dose was recovered as intact drug in the feces while after oral administration this figure was less than 3%. Excretion of intact SRA737 was lower in the rat than in the mouse with <1% of dose excreted renally over 24 hours and less than 1.5% of dose excreted into the feces over 24 hours.

Structure (SMILES): N#Cc1cnc(Nc2cc(NCC3CNCCO3)c(C(F)(F)F)cn2)cn1 (stereo not drawn) [SRA737, 5-[[4-[[morpholin-2-yl]methylamino]-5-(trifluoromethyl)-2-pyridyl]amino]pyrazine-2-carbonitrile]
- renal excretion of intact SRA737 (5 mg/kg IV or 10 mg/kg oral): less than 10 % of dose
- intact drug recovered in the feces (IV administration): less than 8 % of dose
- intact drug recovered in the feces (oral administration): less than 3 % of dose
